Source: US6348317B1, “Fluorescent and DNA cleavage properties of peptide/dye conjugates” (The Arizona Board of Regents, priority 1999, dated 2002)

What was measured:
GRE1 dsDNA = assay: Photocleavage at 514 nm, PAGE analysis; format: biochemical
Method: (§1) The purified DNA strands shown in FIG. 2 were 5′^-32P-end-labeled using T4 polynucleotide kinase and purified as described above. Oxygen removal was performed by bubbling argon through the samples. Irradiations were performed on […] samples in a 1.0 mL glass cuvette fit with a septum using an argon-ion laser at 514 nm with a power of 300 mW/cm^2. After irradiation, samples were divided in half and one portion treated with piperidine, the other immediately frozen. Piperidine treatment consisted of adding an equal volume of freshly prepared 20% piperidine in water to the sample followed by heating at 90° C. for 30 minutes. Both the treated and untreated fractions were dried under vacuum. To each dried sample was added […] of 80% formamide in water. The products of the photocleavage experiments were analyzed on a 15% polyacrylamide (19:1) vertical sequencing gel with dimensions 21 cm×40 cm×0.4 mm. […] Gels were dried and exposed to a phosphorimaging screen for 4 hours and analyzed on a Molecular Dynamics Storm-840 gel scanner in phosphorimaging mode.
(§2) Photocleavage of TO-ZF conjugate. […] After irradiation of TO-ZF bound to dsDNA in Tris buffer solution at 514 nm (514 nm is in the main band of the absorbance spectrum of intercalated thiazole orange as shown in FIG. 3), the photo-products were denatured and separated using denaturing polyacrylamide gel electrophoresis (PAGE). […]

GRE2 dsDNA = assay: Photocleavage at 514 nm, intensity dependence of guanine oxidation; format: biochemical; conditions: 160 nM duplex DNA, 200 nM TO-ZF, piperidine
Method: as §1, §2

## TO-ZF: 29 amino acid single zinc finger from residues 438-465 of glucocorticoid receptor, thiazole orange coupled to a lysine ε-amine
GRE1 dsDNA; 514 nm irradiation, piperidine treatment
  site of photocleavage: piperidine dependent cleavage to occur predominantly at the guanine within the GRE
GRE1 dsDNA; samples reacted in the presence of oxygen
  total chemical yield of the piperidine dependent reactions: 2%
GRE2 dsDNA
  preferential site of photocleavage: Preferential cleavage is observed at the 5′-G of the GG sequence
